These results are taken from patent publication US11149031B2, “Substituted N-(3-fluoropropyl)-pyrrolidine compounds, processes for their preparation and therapeutic uses thereof” (SANOFI, priority 2016, dated 2021).

Experiment [1] concerns the target His6-ERα298-554 Y537S mutant (ERα ligand-binding domain) (Homo sapiens (Human), UniProt P03372, Y537S). Put plainly: Test A: biochemical antagonist activity, LanthaScreen TR-FRET ERα coactivator assay, Y537S mutant. The settings on record: protocol with 3 nM estradiol; read-out: Antagonism Y537S IC50. The method in brief:
(§1)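 Compounds were added to receptor LBD (0.5 nM), terbium-labelled His6 antibody (0.5 nM), PGC1a coactivator peptide (250 nM) and estradiol at 3 nM or 10 nM. After incubating overnight at room temperature, the 520:495 nm ratio gave IC50 values by four-parameter logistic regression.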
A general note: In TR-FRET formats the signal depends on donor and acceptor labels being close together.

Experiment [2] addresses His6-ERα298-554 WT (ERα ligand-binding domain) (Homo sapiens (Human), UniProt P03372). Put plainly: Test A: biochemical antagonist activity, LanthaScreen TR-FRET ERα coactivator assay, WT. The settings on record: protocol with 3 nM estradiol; read-out: Antagonism WT IC50. Put shortly: as §1
In experiment [3] the target is His6-ERα298-554 D538G mutant (ERα ligand-binding domain) (Homo sapiens (Human), UniProt P03372, D538G). The experiment is described as follows: Test A: biochemical antagonist activity, LanthaScreen TR-FRET ERα coactivator assay, D538G mutant. The settings on record: protocol with 3 nM estradiol; read-out: Antagonism D538G IC50. Put shortly:
as §1

Experiment [4] has as its target ERα in MCF7 cells (Homo sapiens (Human), UniProt P03372). Put plainly: Test C: estrogen receptor degradation activity, ERα in cell western assay in MCF7 cells. The format is cell-based. Conditions: for DC50: 4 hours post compound addition, ERα in cell western, read-out: Degradation IC50; for % Degradation at 3 μM: 4 hours, relative to fulvestrant. Put shortly: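 In-cell western, MCF7, 4 h compound exposure, 3–0.000018 μM final, 9 points, 1:5 steps. Formalin/Triton fix, anti-ER rabbit mAb overnight cold, Alexa 488 secondary plus 2 μM Syto-64. Green intensity = ERα, red = DNA; no-primary wells as background.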

One may read the IC50 as the point on the concentration scale where inhibition reaches its midpoint.

Sequence of His6-ERα298-554 D538G mutant (ERα ligand-binding domain) (P03372 298-554 D538G): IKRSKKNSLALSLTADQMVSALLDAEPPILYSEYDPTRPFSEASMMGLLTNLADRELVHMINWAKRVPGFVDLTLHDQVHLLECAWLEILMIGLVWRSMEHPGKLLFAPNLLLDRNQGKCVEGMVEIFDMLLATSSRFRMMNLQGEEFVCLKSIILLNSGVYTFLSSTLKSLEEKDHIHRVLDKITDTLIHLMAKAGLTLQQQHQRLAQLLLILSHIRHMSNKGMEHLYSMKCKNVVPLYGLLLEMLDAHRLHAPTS
Sequence of His6-ERα298-554 Y537S mutant (ERα ligand-binding domain) (P03372 298-554 Y537S): as the sequence (P03372 298-554 D538G) above, with Y240S, G241D counted along it
Sequence of His6-ERα298-554 WT (ERα ligand-binding domain) (P03372 298-554): as the sequence (P03372 298-554 D538G) above, with G241D counted along it
Sequence of ERα in MCF7 cells (P03372 whole entry): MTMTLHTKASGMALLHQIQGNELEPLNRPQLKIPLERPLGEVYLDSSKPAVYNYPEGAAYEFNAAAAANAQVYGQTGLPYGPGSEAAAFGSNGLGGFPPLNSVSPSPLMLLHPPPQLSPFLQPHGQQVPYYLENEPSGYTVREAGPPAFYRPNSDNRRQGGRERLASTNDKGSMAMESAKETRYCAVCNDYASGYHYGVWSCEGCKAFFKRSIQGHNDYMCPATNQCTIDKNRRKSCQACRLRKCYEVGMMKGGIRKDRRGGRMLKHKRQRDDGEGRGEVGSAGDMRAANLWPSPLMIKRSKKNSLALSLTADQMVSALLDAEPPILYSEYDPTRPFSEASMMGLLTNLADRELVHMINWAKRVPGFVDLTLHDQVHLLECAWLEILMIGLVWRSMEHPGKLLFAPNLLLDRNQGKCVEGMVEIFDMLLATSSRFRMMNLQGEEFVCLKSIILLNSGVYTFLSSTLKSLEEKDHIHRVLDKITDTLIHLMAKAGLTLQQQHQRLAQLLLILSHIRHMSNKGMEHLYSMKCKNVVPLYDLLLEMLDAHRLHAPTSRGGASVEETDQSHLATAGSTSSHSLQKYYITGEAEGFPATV

As to `Cc1c(Cl)cccc1C1=C(c2ccc(O[C@H]3CCN(CCCF)C3)cc2)c2cc(O)ccc2SCC1` [Example 173, 4-(3-chloro-2-methyl-phenyl)-5-[4-[(3S)-1-(3-fluoropropyl)pyrrolidin-3-yl]oxyphenyl]-2,3-dihydro-1-benzothiepin-7-ol], the IC50 was 87 nM in experiment [1], 21 nM in experiment [2] and 145 nM in experiment [3]. For the same compound, in experiment [4], the DC50 is 4 nM. The “% Degradation at 3 μM” value in experiment [4] came to 82%.

For the compound `Oc1ccc2c(c1)C(c1ccc(O[C@H]3CCN(CCCF)C3)cc1)=C(c1ccc(F)c(Cl)c1)CCS2` [Example 174, 4-(3-chloro-4-fluoro-phenyl)-5-[4-[(3S)-1-(3-fluoropropyl)pyrrolidin-3-yl]oxyphenyl]-2,3-dihydro-1-benzothiepin-7-ol], the IC50 in experiment [1] stood at 222 nM; in experiment [2], 53 nM; in experiment [3], 422 nM. In experiment [4], the DC50 was determined as 4 nM. In experiment [4], the “% Degradation at 3 μM” value is reported as 81%.

For the compound `Oc1ccc2c(c1)C(c1ccc(O[C@H]3CCN(CCCF)C3)cc1)=C(c1ccc(F)cc1Cl)CCS2` [Example 175, 4-(2-chloro-4-fluoro-phenyl)-5-[4-[(3S)-1-(3-fluoropropyl)pyrrolidin-3-yl]oxyphenyl]-2,3-dihydro-1-benzothiepin-7-ol], the IC50 was 65 nM in experiment [1], 20 nM in experiment [2] and 116 nM in experiment [3]. Further, in experiment [4], the DC50 worked out at 0.3 nM. Also, the “% Degradation at 3 μM” value in experiment [4] amounted to 83%.

In the case of `Oc1ccc(C2=C(c3ccc(O[C@H]4CCN(CCCF)C4)cc3)c3cc(O)ccc3SCC2)cc1` [Example 177, 5-[4-[(3S)-1-(3-fluoropropyl)pyrrolidin-3-yl]oxyphenyl]-4-(4-hydroxyphenyl)-2,3-dihydro-1-benzothiepin-7-ol], the IC50 in experiment [1] is 29 nM; in experiment [2] it was 4 nM; in experiment [3] it was 41 nM. Further, in experiment [4], the DC50 turned out to be 0.2 nM. The “% Degradation at 3 μM” value in experiment [4] stood at 75%.

Turning to `Cc1cc(C2=C(c3ccc(O[C@H]4CCN(CCCF)C4)cc3)c3cc(O)ccc3SCC2)ccc1Cl` [Example 179, 4-(4-chloro-3-methyl-phenyl)-5-[4-[(3S)-1-(3-fluoropropyl)pyrrolidin-3-yl]oxyphenyl]-2,3-dihydro-1-benzothiepin-7-ol], the half-inhibitory concentration (IC50) in experiment [1] amounted to 80 nM; in experiment [2], 12 nM; in experiment [3] it was 114 nM. The DC50 in experiment [4] came out at 4 nM. For the same compound, the “% Degradation at 3 μM” value in experiment [4] amounted to 80%.

Turning to `Cc1cc(F)ccc1C1=C(c2ccc(O[C@H]3CCN(CCCF)C3)cc2)c2cc(O)ccc2SCC1` [Example 180, 4-(4-fluoro-2-methyl-phenyl)-5-[4-[(3S)-1-(3-fluoropropyl)pyrrolidin-3-yl]oxyphenyl]-2,3-dihydro-1-benzothiepin-7-ol], the IC50 worked out at 16 nM in experiment [1], 7 nM in experiment [2] and 36 nM in experiment [3]. The DC50 in experiment [4] turned out to be 3 nM. In addition, in experiment [4], the “% Degradation at 3 μM” value turned out to be 80%.

As for `Oc1ccc2c(c1)C(c1ccc(O[C@H]3CCN(CCCF)C3)cc1)=C(c1ccc(Cl)cc1F)CCS2` [Example 181, 4-(4-chloro-2-fluoro-phenyl)-5-[4-[(3S)-1-(3-fluoropropyl)pyrrolidin-3-yl]oxyphenyl]-2,3-dihydro-1-benzothiepin-7-ol], the figures for the IC50 in experiment [1], in experiment [2] and in experiment [3] were 54 nM, 25 nM and 135 nM, respectively. For the same compound, the DC50 in experiment [4] came to 3 nM. Also, in experiment [4], the “% Degradation at 3 μM” value was 83%.

In the case of `O=S1(=O)CCC(c2cccc(O)c2)=C(c2ccc(O[C@H]3CCN(CCCF)C3)cc2)c2ccc(O)cc21` [Example 228, 5-[4-[(3S)-1-(3-fluoropropyl)pyrrolidin-3-yl]oxyphenyl]-4-(3-hydroxyphenyl)-1,1-dioxo-2,3-dihydro-benzothiepin-8-ol], the results for the IC50 in experiment [1], in experiment [2] and in experiment [3] were 38 nM, 6 nM and 73 nM, respectively. Further, in experiment [4], the DC50 is 0.2 nM. Further, the “% Degradation at 3 μM” value in experiment [4] was found to be 87%.

`O=S1(=O)CCC(c2ccc(F)cc2Cl)=C(c2ccc(O[C@H]3CCN(CCCF)C3)cc2)c2ccc(O)cc21` [Example 229, 4-(2-chloro-4-fluoro-phenyl)-5-[4-[(3S)-1-(3-fluoropropyl)pyrrolidin-3-yl]oxyphenyl]-1,1-dioxo-2,3-dihydro-1λ^6-benzothiepin-8-ol]: the IC50 turned out to be 34 nM in experiment [1], 12 nM in experiment [2] and 85 nM in experiment [3]. The DC50 in experiment [4] stood at 0.2 nM. The “% Degradation at 3 μM” value in experiment [4] is given as 89%.

Turning to `Cc1ccc(C2=C(c3ccc(O[C@H]4CCN(CCCF)C4)cc3)c3ccc(O)cc3S(=O)(=O)CC2)c(F)c1` [Example 230, 4-(2-fluoro-4-methyl-phenyl)-5-[4-[(3S)-1-(3-fluoropropyl)pyrrolidin-3-yl]oxyphenyl]-1,1-dioxo-2,3-dihydro-1λ^6-benzothiepin-8-ol], the figures for the IC50 in experiment [1], in experiment [2] and in experiment [3] were 41 nM, 14 nM and 99 nM, respectively. For the same compound, the DC50 in experiment [4] was 0.8 nM. The “% Degradation at 3 μM” value in experiment [4] stood at 93%.

`O=S1(=O)CCC(c2cccc(F)c2Cl)=C(c2ccc(O[C@H]3CCN(CCCF)C3)cc2)c2ccc(O)cc21` [Example 232, 4-(2-chloro-3-fluoro-phenyl)-5-[4-[(3S)-1-(3-fluoropropyl)pyrrolidin-3-yl]oxyphenyl]-1,1-dioxo-2,3-dihydro-1λ^6-benzothiepin-8-ol]: the half-maximal inhibitory concentration (IC50) is 78 nM in experiment [1], 16 nM in experiment [2] and 99 nM in experiment [3]. The DC50 in experiment [4] stood at 0.2 nM. The “% Degradation at 3 μM” value in experiment [4] was found to be 95%.

As for `O=S1(=O)CCC(c2ccc(Cl)cc2F)=C(c2ccc(O[C@H]3CCN(CCCF)C3)cc2)c2ccc(O)cc21` [Example 233, 4-(4-chloro-2-fluoro-phenyl)-5-[4-[(3S)-1-(3-fluoropropyl)pyrrolidin-3-yl]oxyphenyl]-1,1-dioxo-2,3-dihydro-1λ^6-benzothiepin-8-ol], the IC50 worked out at 70 nM in experiment [1], 20 nM in experiment [2] and 128 nM in experiment [3]. Moreover, the DC50 in experiment [4] worked out at 0.2 nM. Also, in experiment [4], the “% Degradation at 3 μM” value amounted to 94%.

As for `Cc1cc(F)ccc1C1=C(c2ccc(O[C@H]3CCN(CCCF)C3)cc2)c2ccc(O)cc2S(=O)(=O)CC1` [Example 234, 4-(4-fluoro-2-methyl-phenyl)-5-[4-[(3S)-1-(3-fluoropropyl)pyrrolidin-3-yl]oxyphenyl]-1,1-dioxo-2,3-dihydro-1λ^6-benzothiepin-8-ol], the IC50 in experiment [1] was 33 nM; in experiment [2] it was 9 nM; in experiment [3], 59 nM. The DC50 in experiment [4] amounted to 0.2 nM. For the same compound, in experiment [4], the “% Degradation at 3 μM” value is 90%.

As to `Cc1c(Cl)cccc1C1=C(c2ccc(O[C@H]3CCN(CCCF)C3)cc2)c2ccc(O)cc2S(=O)(=O)CC1` [Example 235, 4-(3-chloro-2-methyl-phenyl)-5-[4-[(3S)-1-(3-fluoropropyl)pyrrolidin-3-yl]oxyphenyl]-1,1-dioxo-2,3-dihydro-1λ^6-benzothiepin-8-ol], the IC50 worked out at 83 nM in experiment [1], 13 nM in experiment [2] and 100 nM in experiment [3]. In experiment [4], the DC50 is 0.9 nM. The “% Degradation at 3 μM” value in experiment [4] amounted to 95%.

On to `Cc1cc(C2=C(c3ccc(O[C@H]4CCN(CCCF)C4)cc3)c3ccc(O)cc3S(=O)(=O)CC2)ccc1Cl` [Example 236, 4-(4-chloro-3-methyl-phenyl)-5-[4-[(3S)-1-(3-fluoropropyl)pyrrolidin-3-yl]oxyphenyl]-1,1-dioxo-2,3-dihydro-1λ^6-benzothiepin-8-ol], for which the IC50 in experiment [1] worked out at 29 nM; in experiment [2], 8 nM; in experiment [3], 54 nM. The DC50 in experiment [4] came to 0.3 nM. Besides, in experiment [4], the “% Degradation at 3 μM” value was 91%.
